Measurements taken from PubChem BioAssay (NCI).
Values joined by “and” are separate entries in the source; they are usually repeats but may differ in a detail not shown here. Identical values can stand only once.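 Five concentrations, 48 hours, 96-well plates. GI50: concentration for 50% inhibition of growth. The concentration for full growth arrest is given as TGI.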

Columns and labels:
Assay in all cases: NCI anticancer screen, dose series, 48 h
[1] = test system: CCRF-CEM leukemia
[2] = test system: NCI-H522 lung
[3] = test system: HCC-2998 colon
[4] = test system: NCI-H460 lung
[5] = test system: DU-145 prostate
[6] = test system: SF-295 CNS
[7] = test system: SF-539 CNS
[8] = test system: SK-OV-3 ovarian
[9] = test system: 786-0 renal
[10] = test system: OVCAR-3 ovarian
[11] = test system: U251 CNS
[12] = test system: SNB-19 CNS
[13] = test system: M14 melanoma
[14] = test system: UO-31 renal
[15] = test system: UACC-257 melanoma
[16] = test system: KM12 colon
[17] = test system: SK-MEL-2 melanoma
[18] = test system: MDA-MB-435
[19] = test system: HS 578T breast
[20] = test system: SW-620 colon
[21] = test system: UACC-62 melanoma
[22] = test system: NCI-H226 lung
[23] = test system: MOLT-4 leukemia
[24] = test system: HT29 colon
[25] = test system: SNB-75 CNS
[26] = test system: HOP-62 NSCLC
[27] = test system: NCI/ADR-RES ovarian
[28] = test system: SK-MEL-28 melanoma
[29] = test system: A549 NSCLC
[30] = test system: PC-3 prostate
[31] = test system: K-562 leukemia
[32] = test system: LOX IMVI melanoma
[33] = test system: MALME-3M melanoma
[34] = test system: RXF 393 renal
[35] = test system: A498 renal
[36] = test system: HCT-116 colon
[37] = test system: COLO 205 colon
[38] = test system: OVCAR-4 ovarian
[39] = test system: SN12C renal
[40] = test system: RPMI-8226 leukemia
[41] = test system: T-47D breast
[42] = test system: BT-549 breast
[43] = test system: TK-10 renal
[44] = test system: NCI-H23 lung
[45] = test system: HL-60(TB) leukemia
[46] = test system: CAKI-1 renal
[47] = test system: SK-MEL-5 melanoma
[48] = test system: MCF7 breast
[49] = test system: SF-268 CNS
[50] = test system: OVCAR-5 ovarian
[51] = test system: IGROV1 ovarian
[52] = test system: HCT-15 colon
[53] = test system: HOP-92 NSCLC

## C#CC(F)(F)[C@]1(O)CC[C@H]2[C@@H]3CCC4=CC(=O)CCC4=C3[C@@H](c3ccc(C4CC4)cc3)C[C@@]21C
[1]
  GI50: 17 nM and < 10 nM
  TGI: 43 nM and < 13.9 nM
[2]
  GI50: < 10 nM
  TGI: 17.4 nM and < 10 nM
[3]
  GI50: 5.6 µM and 3.72 µM
  TGI: 29.9 µM and > 65.6 µM
[4]
  GI50: 2380 nM and 2280 nM
  TGI: 9.9 µM and 9.67 µM
[5]
  GI50: 814 nM and 2130 nM
  TGI: 6.55 µM and 15.4 µM
[6]
  GI50: 31.9 nM and < 10 nM
  TGI: 82.1 nM and < 10 nM
[7]
  GI50: 20.7 nM and < 15.5 nM
  TGI: 45.8 nM and 31.7 nM
[8]
  GI50: 162 nM and 69.5 nM
  TGI: 312 nM and 215 nM
[9]
  GI50: < 10 nM
  TGI: < 10.6 nM
[10]
  GI50: 15.9 nM and 24.5 nM
  TGI: 32.6 nM and 169 nM
[11]
  GI50: 48 nM and 395 nM
  TGI: 234 nM and 2200 nM
[12]
  GI50: 1440 nM and 3910 nM
[13]
  GI50: 844 nM and 2780 nM
  TGI: 2.92 µM and 18.8 µM
[14]
  GI50: < 10 nM
  TGI: < 10 nM
[15]
  GI50: 7.72 µM and 6.45 µM
  TGI: 71.8 µM and > 100 µM
[16]
  GI50: 21.4 nM and < 17.7 nM
[17]
  GI50: 2650 nM and 2220 nM
  TGI: 7.74 µM and 6.01 µM
[18]
  GI50: 4.59 µM and 2.25 µM
  TGI: 23.9 µM and 10.3 µM
[19]
  GI50: 205 nM and 1320 nM
  TGI: 2.63 µM and 7.34 µM
[20]
  GI50: 1250 nM and 2360 nM
  TGI: 7.44 µM and 12.4 µM
[21]
  GI50: 762 nM and 1420 nM
  TGI: 2.36 µM and 4.22 µM
[22]
  GI50: 7.79 µM and 3.15 µM
  TGI: 72.9 µM and 11.5 µM
[23]
  GI50: 1160 nM and 1620 nM
  TGI: 4 µM and 5 µM
[24]
  GI50: 42.8 nM and < 20 nM
  TGI: 171 nM and 184 nM
[25]
  GI50: 147 nM
  TGI: 437 nM
[26]
  GI50: 367 nM and 201 nM
  TGI: 5.44 µM and 1.72 µM
[27]
  GI50: 83 nM and 164 nM
  TGI: 2.82 µM and 5.55 µM
[28]
  GI50: 5.33 µM and 2.31 µM
  TGI: 17.9 µM and 5.96 µM
[29]
  GI50: 400 nM and 470 nM
  TGI: 3.91 µM and 7.22 µM
[30]
  GI50: 44.1 nM and 414 nM
  TGI: 313 nM and 2740 nM
[31]
  GI50: 815 nM and 2210 nM
  TGI: 11.7 µM and > 100 µM
[32]
  GI50: < 10 nM
  TGI: < 10 nM
[33]
  GI50: 43.6 nM and < 15.1 nM
  TGI: 94.6 nM and < 28 nM
[34]
  TGI: 2.92 µM and 7 µM
[35]
  GI50: 495 nM and 593 nM
  TGI: 1930 nM and 1740 nM
[36]
  GI50: 3.19 µM and 2.9 µM
  TGI: 13.2 µM and 19 µM
[37]
  GI50: 1790 nM and 1220 nM
  TGI: 11.2 µM and 3.59 µM
[38]
  GI50: 1010 nM
  TGI: > 100 µM
[39]
  GI50: 933 nM and 2450 nM
  TGI: 8.69 µM and 10.5 µM
[40]
  GI50: 139 nM and 125 nM
  TGI: 1000 nM and 915 nM
[41]
  GI50: < 10 nM
  TGI: 59 µM and 8.4 µM
[42]
  GI50: 1160 nM and 1280 nM
  TGI: 2.94 µM and 3.57 µM
[43]
  GI50: 4.55 µM and 2.24 µM
  TGI: 20.9 µM and 8.33 µM
[44]
  GI50: 24.2 nM and < 15.1 nM
  TGI: 268 nM and < 41 nM
[45]
  GI50: < 10 nM
  TGI: 21.6 nM and < 10 nM
[46]
  GI50: 103 nM and < 17.1 nM
  TGI: 633 nM and 74.5 nM
[47]
  GI50: 4.05 µM and 3.05 µM
  TGI: 10.7 µM and 8.41 µM
[48]
  GI50: 1560 nM and 1160 nM
  TGI: > 100 µM
[49]
  GI50: 54.1 nM and 97.1 nM
  TGI: 183 nM and 322 nM
[50]
  GI50: 271 nM and 1280 nM
  TGI: 2.27 µM and 5.79 µM
[51]
  GI50: < 11.4 nM
  TGI: < 15.5 nM
[52]
  GI50: 1550 nM and 1810 nM
  TGI: > 100 µM
[53]
  GI50: 16.7 nM and < 16.1 nM
  TGI: 37.4 nM and < 25.3 nM
